Test results: patent US8952221B2, “Enzymes that synthesize zingiberene” (Board of Trustees of Michigan State University, priority 2011, dated 2015)

System: LA2167-ZIS zingiberene synthase
Assay: Recombinant LA2167-ZIS enzyme activity assay, soluble protein from E. coli BL21 plus isoprenoid diphosphate substrate, headspace SPME GC-MS
Type: biochemical, Solanum habrochaites
Settings: for Products synthesized by LA2167-ZIS from the supplied substrate: 10 μM substrate, 2 μg soluble protein, 30 min at 30° C., GC-MS extracted ion 93; for Peak Area % of products synthesized by recombinant LA2167-ZIS: substrate 2Z,6Z-Farnesyl diphosphate, SEQ ID NO:3 in pHIS8, E. coli BL21 DE3, GC-MS
Method: The synthetic gene was excised from the pUC57 cloning vector by digestion with BamHI and SalI and ligated into the pHIS8 vector previously linearized by digestion with the same enzymes. Recombinant clones were transformed into E. coli BL21 cells. A 5-mL log-phase culture of E. coli BL21 cells containing the expression vector was induced by addition of IPTG to a final concentration of 0.1 mM. The induced cells were incubated with agitation at 25° C. for 16 h, and then harvested by centrifugation at 10,000 g for 15 min. The cell pellet was resuspended in 1 mL extraction buffer (50 mM HEPES pH 8, 5% glycerol, 100 mM KCl, 7.5 mM MgCl2 containing 1 mM dithiothreitol (DTT)) prior to sonication. Soluble proteins were harvested after centrifugation at 10,000 g for 20 min. The supernatant was used for subsequent enzyme assays. Two micrograms of soluble protein were mixed with 10 μM of substrate (GPP, NPP, EE-FPP or 2Z, 6Z-FPP (Echelon Biosciences Inc., Salt Lake City, Utah)) in a 2-mL glass vial. Reactions were allowed to proceed for 30 min at 30° C., and the glass vial headspace was collected with a 65 μm polydimethylsiloxane-divinylbenzene solid-phase microextraction fiber (Supelco, Bellefonte, Pa.). After 5 min of exposure at 42° C., the SPME fiber was retracted and transferred to the GC injector port for desorption at 200° C. onto the GC column for 3 min. The terpenes were separated on a DB5 column (10 m length, inner diameter and 0.25 um). The GC-MS analysis was performed as described previously […] et al. (Plant Physiol 153, 1212-1223 (2010)).

| Compound | Products synthesized by LA2167-ZIS from the supplied substrate | Peak Area % of products synthesized by recombinant LA2167-ZIS |
| --- | --- | --- |
| CC(C)=CCC/C(C)=C\CC/C(C)=C\COP(=O)(O)OP(=O)(O)O [2Z,6Z-farnesyl diphosphate, (2Z,6Z)-farnesyl diphosphate, reference compound] | zingiberene peak at about 4.65 is only observed |  |
| CC(C)=CCCC(C)c1ccc(C)cc1 (stereo not drawn) [AR-curcumene] |  | 0.986% |
| C=C(CCC=C(C)C)[C@@H]1CC=C(C)CC1 [Bisabolene beta] |  | 0.107% |
| C=C(C)C(CO)C/C=C(/C)CCC=C(C)C (stereo not drawn) [Sesquilavandulol <Z>] |  | 0.228% |
| C=C1C=CC(C(C)CCC=C(C)C)CC1 (stereo not drawn) [Sesquiphellandrene beta] |  | 0.567% |
| CC(C)=CCC/C(C)=C/COP(=O)(O)OP(=O)(O)O [geranyl diphosphate, reference compound] | failed to synthesize any products |  |
| CC(C)=CCC/C(C)=C\COP(=O)(O)OP(=O)(O)O [neryl diphosphate, reference compound] | failed to synthesize any products |  |
| bergamotene |  | 0.273% |
| zingiberene |  | 97.839% |
